Test results taken from ChEMBL document CHEMBL4118134, “Design, synthesis, and evaluation of novel N-1 fluoroquinolone derivatives: Probing for binding contact with the active site tyrosine of gyrase” (Bioorg Med Chem Lett, 2018).
Active and inactive are the calls of the source. No cut-off for these calls is given here.

Tests used:
[1] = biological target: T1, DNA gyrase (Escherichia coli) (UniProt P0AES6+P0AES4); experiment: Poison activity at Escherichia coli DNA gyrase assessed as increase in linear DNA generation at 10 uM using supercoiled pBR322 DNA incubated for 10 mins by ethidium bromide staining based gel electrophoresis based DNA cleavage assay relative to untreated control; format: protein-complex assay
[2] = biological target: T1, DNA gyrase (Escherichia coli); experiment: Inhibition of Escherichia coli DNA gyrase subunit GyrA/GyrB supercoiling activity at 10 uM using relaxed pBR322 DNA incubated for 15 mins by ethidium bromide staining based gel electrophoresis method; format: protein-complex assay
Homo sapiens [3] = organism: Homo sapiens; experiment: Inhibition of human topoisomerase 2 assessed as reduction in decatenatation of kinetoplast DNA at 200 uM incubated for 15 mins by ethidium bromide staining based gel electrophoresis method
DNA gyrase = DNA gyrase (Escherichia coli, UniProt P0AES4+P0AES6); experiment: Inhibition of Escherichia coli DNA gyrase subunit GyrA/GyrB supercoiling activity using relaxed pBR322 DNA incubated for 15 mins by ethidium bromide staining based gel electrophoresis method; format: protein-complex assay
[4] = Inhibition of human topoisomerase 2 assessed as reduction in decatenatation of kinetoplast DNA incubated for 15 mins by ethidium bromide staining based gel electrophoresis method
Homo sapiens [5] = organism: Homo sapiens; experiment: Poison activity at human topoisomerase 2 assessed as increase in linear DNA generation at 5 to 10 uM incubated for 10 mins by ethidium bromide staining based gel electrophoresis based DNA cleavage assay relative to untreated control

| SMILES | fold change (FC) [1] | inhibition [2] | inhibition (Homo sapiens [3]) | IC50 (DNA gyrase) | IC50 [4] | Activity (Homo sapiens [5]) |
| --- | --- | --- | --- | --- | --- | --- |
| COc1c(N2CC[C@@H](CN)C2)c(F)cc2c1N(C1CC1)CC(C(=O)O)C2=O (stereo not given in full) | > 4 | > 96% | inactive | 0.12 µM | – | – |
| COc1c(N2CC[C@@H](CN)C2)c(F)cc2c(=O)c(C(=O)O)cn(CCCCN)c12 | < 2 | 25.7% | – | – | – | – |
| COc1c(N2CC[C@@H](CN)C2)c(F)cc2c(=O)c(C(=O)O)cn(CCCCCN)c12 | < 2 | 12.3% | – | – | – | – |
| CCN1CCN(c2c(F)cc3c(=O)c(C(=O)O)cn(Cc4ccccc4)c3c2OC)CC1 | < 2 | 23.3% | – | – | – | – |
| COc1cc([C@@H]2c3cc4c(cc3[C@@H](O[C@@H]3O[C@@H]5CO[C@@H](C)O[C@H]5[C@H](O)[C@H]3O)[C@H]3COC(=O)[C@H]23)OCO4)cc(OC)c1O [ETOPOSIDE] | – | – | – | – | 60 µM | 400 to 800% |
| COc1c(N2CC[C@@H](CN)C2)c(F)cc2c(=O)c(C(=O)O)cn(CCCN3C(=O)c4ccccc4C3=O)c12 | < 2 | < 5% | – | – | – | – |
| COc1ccc(Cn2cc(C(=O)O)c(=O)c3cc(F)c(N4CC[C@@H](CN)C4)c(OC)c32)cc1 | < 2 | 25.2% | – | – | – | – |
| COc1c(N2CC[C@@H](CN)C2)c(F)cc2c(=O)c(C(=O)O)cn(CCc3ccccc3)c12 | < 2 | 11% | – | – | – | – |
| COc1c(N2CC[C@@H](CN)C2)c(F)cc2c(=O)c(C(=O)O)cn(CCCCCN3C(=O)c4ccccc4C3=O)c12 | < 2 | 20.2% | – | – | – | – |
| COc1c(N2CC[C@@H](CN)C2)c(F)cc2c(=O)c(C(=O)O)cn(CCCc3ccccc3)c12 | < 2 | 27.1% | – | – | – | – |
| COc1c(N2CC[C@@H](CN)C2)c(F)cc2c(=O)c(C(=O)O)cn(Cc3ccccc3)c12 | < 2 | 37.7% | – | – | – | – |
| CCN1CCN(c2c(F)cc3c(=O)c(C(=O)O)cn(CCCCCN)c3c2OC)CC1 | < 2 | < 5% | – | – | – | – |
| COc1c(N2CC[C@@H](CN)C2)c(F)cc2c(=O)c(C(=O)O)cn(CCCN)c12 | < 2 | < 5% | – | – | – | – |
| COc1c(N2CC[C@@H](CN)C2)c(F)cc2c(=O)c(C(=O)O)cn(CCCCN3C(=O)c4ccccc4C3=O)c12 | < 2 | 20.4% | – | – | – | – |
